Reference: US10254283B2, “Biomarker for MELK activity and methods of using same” (Dana-Farber Cancer Institute, Inc., priority 2013, dated 2019)
Entries after “also recorded” stand apart in the source; their conditions may differ.

How the values were obtained:
[1] = tested on: phosphorylation of eIF4B at S406; experiment: Immunoblotting of eIF4B S406 phosphorylation in drug-treated mitotic cells; format: cell-based, human
Description: MDA-MB-468 cells stably expressing tetracycline-inducible (tet-on) small hairpin MELK (shMELK) in the presence or absence of doxycycline were harvested through treatment of nocodazole, and subjected to immunoblotting. […] Mitotic MDA-MB-468 cells were treated for 30 min with vehicle or 200 nM OTSSP167, a MELK inhibitor (Chung et al. (2012) Oncotarget 3:1629-1640). Lysates were used for immunoblotting.
(§1) For treatment with nocodazole, cells were refreshed with medium containing nocodazole (200 ng/ml). Twenty hours after treatment, floating mitotic cells were harvested by gental shake-off. For drug treatment, cells were seeded in multi-well plate, in the presence of OTSSP167 (ChemExpress, HY15512; 10 mM stock made in DMSO).
(§2) Cells were harvested and lysed with RIPA buffer (25 mM Tris, pH 7.4, 150 mM NaCl, 1% Nonidet P-40, 0.5% sodium deoxycholate, and 0.1% sodium dodecyl sulfate) supplemented with protease inhibitors cocktail (Roche) and phosphatase inhibitors cocktail (Thermo Scientific). Cleared lysates were analyzed for protein concentration using a BCA kit (Thermo Scientific). Equal amount of protein (10-20 μg) was resolved on SDS-PAGE, and was subsequently transferred onto a nitrocellulose or polyvinylidene difluoride membrane (Amersham). The membrane was blocked with 5% non-fat milk and was then incubated with primary antibodies overnight at 4° C. After washing, the membrane was incubated with fluorophore-conjugated secondary antibodies for 1 h at room temperature. The membrane was then washed and scanned with an Odyssey® Infrared scanner (Li-Cor Biosciences).
The following antibodies were used for immunoblotting or immunoprecipitation, MELK (Epitomics, 2916), p-eIF4B (S406) (Cell Signaling, 8151), p-eIF4B (S422) (Cell Signaling, 3591), eIF4B (Cell Signaling, 3592), c-Myc (Cell Signaling, 5605), XIAP (Cell Signaling, 2045), p-Akt (S473) (Cell Signaling, 4060), p-MAPK (T202/Y204) (Cell Signaling, 4370), cleaved PARP (Asp214) (Cell Signaling, 9541), Aurora A (Cell Signaling, 4718), Aurora B (Cell Signaling, 3094), p-Aurora A (T288)/Aurora B (T232)/Aurora C (T198) (Cell Signaling, 2914), p-Histone H3 (T3) (Cell Signaling, 13576), p-Histone H3 (S10) (Cell Signaling, 3377), p-Histone H3 (T11) (Cell Signaling, 9767), p-Histone H3 (S28) (Cell Signaling, 9713), ODC (Sigma, O1136), Vinculin (Sigma, V9131, alpha-tubulin (Sigma, T9016), anti-HA magnetic beads (Pierce, 88836), anti-Flag magnetic beads (Sigma, M8823). Secondary antibodies used were Alexa Fluor 680 goat anti-rabbit IgG (Invitrogen A-21109) and IRDye800-conjugated anti-mouse IgG (Rockland).

[2] = molecular target: T1, recombinant MELK (kinase domain) (Homo sapiens, UniProt Q14680); experiment: In vitro kinase assay, recombinant MELK (kinase domain) with recombinant Histone H3, immunoblotting; format: biochemical; settings: 200 ng/ml final, 30 min at 30° C. (FIG. 12)
T1 construct: incubated without or with recombinant MELK (kinase domain) for 30 min. at 30° C
T1 sequence (Q14680 11-263 limits assumed): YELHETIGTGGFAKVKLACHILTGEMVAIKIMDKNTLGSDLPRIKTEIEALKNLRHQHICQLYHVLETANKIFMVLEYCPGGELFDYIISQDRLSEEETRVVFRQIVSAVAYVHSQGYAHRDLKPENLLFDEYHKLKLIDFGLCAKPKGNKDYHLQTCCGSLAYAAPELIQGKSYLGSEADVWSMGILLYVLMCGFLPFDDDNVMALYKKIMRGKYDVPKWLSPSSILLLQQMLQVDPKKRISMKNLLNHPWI
Description: Reactions were terminated by adding SDS sample buffer. Samples were subjected to immunoblotting using the indicated antibodies.
Flag-tagged eIF4B or Flag-eIF4B (S406A) was transfected into HEK293T cells (4 μg DNA for cells in one 60 mm dish). Thirty-six hours after transfection, cells were lysed with IP buffer (100 mM NaCl, 50 mM Tris, pH 7.5, 0.5% NP-40, 0.5% Sodium deoxycholate, supplemented with protease/phosphatase inhibitor cocktail). Lysates were cleared via incubating with anti-mouse IgG conjugated to magnetic beads (4° C., 30 min), and then immunoprecipitated with anti-Flag M2 magnetic beads (Sigma) (4° C., 120 min). The beads with bound antigens were washed 5 times with IP buffer. Beads during the last wash were aliquoted into 1.5 ml microcentrifuge tubes. After removal of IP buffer, the beads were washed once with 1× kinase buffer without ATP (5 mM Tris, pH 7.5, 5 mM-βglycerophosphate, 2 mM dithiothreitol, 0.1 mM Na3VO4, 10 mM MgCl2; Cell Signaling). After the wash, 40 μl 1× kinase buffer with 200 mM ATP was added to each tube, followed by 5 ul buffer without or with 500 ng recombinant MELK. The reaction was incubated at 30° C. for 30 min, and terminated by adding 40 ul 2×SDS sample buffer. The samples were then boiled and subjected to immunoblotting. […]

[3] = tested on: mitotic phosphorylation of Histone H3; experiment: Immunoblotting of mitotic Histone H3 phosphorylation in drug-treated cells; format: cell-based, human
Description: Mitotic cells were harvested through nocodazole-induced cell cycle arrest at prometaphase (200 ng/ml nocodazole, 20 hours). Cells were treated with the small chemical inhibitor of MELK, OTSSP167, for 30 min, at the indicated concentrations. Cell lysates were then prepared for immunoblotting.
as §1
as §2, with “The membrane was then washed and scanned with an Odyssey® Infrared scanner (Li-Cor Biosciences).” left out

[4] = mitotic cells treated for 30 min, mTOR inhibitors versus MELK inhibitor (FIG. 6)

SMILES: CCC(=O)N1CCN(c2ccc(-n3c(=O)ccc4cnc5ccc(-c6cnc7ccccc7c6)cc5c43)cc2C(F)(F)F)CC1 [Torin 1]
- phosphorylation of eIF4B at S406 [1, 4]: not mTOR inhibition
- phosphorylation of eIF4B at S406 ([1]; mitotic cells treated for 30 min, mTOR inhibitors versus MELK inhibitor (FIG. 6), listed as torins): do not produce the same results

SMILES: CC(=O)c1cnc2ccc(-c3cc(Cl)c(O)c(Cl)c3)nc2c1N[C@H]1CC[C@H](CN(C)C)CC1 [OTSSP167]
- phosphorylation of eIF4B at S406 ([1]; mitotic MDA-MB-468 cells, 200 nM, 30 min, vs vehicle (FIG. 5 right panels)): impairs the phosphorylation of eIF4B at S406
- phosphorylation of eIF4B at S406 [1, 4]: suppressed the phosphorylation of eIF4B at S406
- MELK-induced phosphorylation of Histone H3 at Ser 10 in vitro [2]: suppresses MELK-induced phosphorylation of Histone H3 at Ser 10
- phosphorylation of Histone H3 at Thr3/Ser10/Thr11 ([3]; MDA-MB-468 cells (text cites FIG. 12)): reduced phosphorylation of Histone H3 at Thr3/Ser10/Thr11
- mitotic phosphorylation of Histone H3 at Thr-3, Ser-10 and Thr-11 ([3]; nocodazole-arrested mitotic cells, 30 min, indicated concentrations (FIG. 13)): concentration-dependent reduction; also recorded: suppresses the mitotic phosphorylation of Histone H3 at Thr-3, Ser-10 and Thr-11
